Test results from patent publication US9795646B2, “Boswellia oil, its fractions and compositions for enhancing brain function” (LAILA NUTRACEUTICALS, priority 2010, dated 2017).
Converted amounts (≈) assume the structure as drawn. “And” between values parts separate entries of the source, which are not always exact repeats. Equal values may be shown once.

What was measured:
Acetylcholinesterase = Acetylcholinesterase (Homo sapiens, UniProt P22303); assay: Acetylcholinesterase inhibitory activity, in vitro enzymatic assay (Ellman method); assay type: biochemical; details: Table 3
Chain of Acetylcholinesterase (P22303 32-614, species assumed): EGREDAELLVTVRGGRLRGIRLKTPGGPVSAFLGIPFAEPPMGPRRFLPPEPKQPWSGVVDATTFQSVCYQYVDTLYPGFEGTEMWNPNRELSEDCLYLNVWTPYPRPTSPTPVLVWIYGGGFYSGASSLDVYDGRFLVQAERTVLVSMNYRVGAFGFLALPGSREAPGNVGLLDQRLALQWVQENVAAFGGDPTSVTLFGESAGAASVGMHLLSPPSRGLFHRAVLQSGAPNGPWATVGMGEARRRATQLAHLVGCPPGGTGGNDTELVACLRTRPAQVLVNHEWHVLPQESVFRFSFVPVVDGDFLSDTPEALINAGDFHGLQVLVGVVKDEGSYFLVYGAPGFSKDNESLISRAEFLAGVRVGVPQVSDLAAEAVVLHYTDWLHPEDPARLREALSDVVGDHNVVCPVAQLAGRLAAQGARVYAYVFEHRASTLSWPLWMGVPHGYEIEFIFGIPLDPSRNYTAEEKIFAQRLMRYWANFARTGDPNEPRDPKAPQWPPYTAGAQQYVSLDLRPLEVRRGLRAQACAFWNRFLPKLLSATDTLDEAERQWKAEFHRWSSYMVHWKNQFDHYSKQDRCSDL
Protocol: (§1) As a part of developing new agents for improving brain/mental function and alleviating disease conditions related to cognition and memory deficits, a large number of plant extracts have been screened for their inhibitory property on Acetylcholinesterase enzyme activity. The assay was performed in vitro by the method of Ellman et al., with minor modifications, using acetylthiocholine iodide as a substrate (Lee J. H., et. al. Arch Pharm Res 2004, 27(1): 53-56). […] Its acetylcholinesterase inhibitory activity was also evaluated by a cell based in vitro assay in Rat pheochromocytoma PC 12 cells. […] Rat pheochromocytoma PC 12 cells were equally distributed with phenol red free Dulbecco's modified Eagle's red medium (DMEM) (Sigma Life Science, USA) containing 10% fetal bovine serum (FBS) in 24-well plate. […] Thereafter, cells were induced with 1 μg/mL of β-amyloid peptide (Calbiochem, USA) for 24 h at 37° C. After 24 h, cells were collected and washed twice with 1×PBS by centrifugation at 1200 rpm for 5 min at 4° C. The cell extracts were prepared in solubilization buffer and the cell lysates were analyzed for acetylcholine esterase (AChE) activity.
Acetylcholinesterase activity is measured using the substrate acetylthiocholine iodide, which is converted to thiocholine. The reaction of thiocholine with the chromogenic substrate Dithionitrobenzoic acid (DTNB) leads to the formation of a yellow anion, Nitrobenzoic acid, which absorbs strongly at 412 nm. Incubation was done for 10 min.
The AChE assay was performed by the method of Ellman et al, with minor modifications, using acetylthiocholine iodide as a substrate (Lee J. H., et. al. Arch Pharm Res 2004, 27(1): 53-56). Ellmans reaction mixture contains 0.5 mM acetylthiocholine iodide and 1 mM 5,5′-dithio-bis-(2-nitrobenzoic acid) in a 50 mM sodium phosphate buffer (pH 8.0). […] For blanks, enzyme was replaced with phosphate buffer. The reaction mixture was mixed thoroughly, 100 μl of Ellman's reagent was added and incubated at room temperature for 10 min. The absorbance was measured at 412 nm using microplate reader. The percentage inhibition of enzyme activity was calculated by comparing OD's of tests wells with that of control wells using the following formula. Calculations: % inhibition=[(control−sample)/control]×100.

[1] = target: T1, acetylcholine esterase (AChE) (Rattus norvegicus, UniProt P37136); assay: Acetylcholine esterase inhibitory activity in β-amyloid peptide induced PC 12 cells; assay type: cell-based; details: PC 12 cells
T1 construct: The cell extracts were used as samples for measuring the acetylcholine esterase (AChE) activity; endogenous in cells; host or cells: rat pheochromocytoma PC 12 cells, induced with β-amyloid peptide
T1 sequence (P37136 32-614): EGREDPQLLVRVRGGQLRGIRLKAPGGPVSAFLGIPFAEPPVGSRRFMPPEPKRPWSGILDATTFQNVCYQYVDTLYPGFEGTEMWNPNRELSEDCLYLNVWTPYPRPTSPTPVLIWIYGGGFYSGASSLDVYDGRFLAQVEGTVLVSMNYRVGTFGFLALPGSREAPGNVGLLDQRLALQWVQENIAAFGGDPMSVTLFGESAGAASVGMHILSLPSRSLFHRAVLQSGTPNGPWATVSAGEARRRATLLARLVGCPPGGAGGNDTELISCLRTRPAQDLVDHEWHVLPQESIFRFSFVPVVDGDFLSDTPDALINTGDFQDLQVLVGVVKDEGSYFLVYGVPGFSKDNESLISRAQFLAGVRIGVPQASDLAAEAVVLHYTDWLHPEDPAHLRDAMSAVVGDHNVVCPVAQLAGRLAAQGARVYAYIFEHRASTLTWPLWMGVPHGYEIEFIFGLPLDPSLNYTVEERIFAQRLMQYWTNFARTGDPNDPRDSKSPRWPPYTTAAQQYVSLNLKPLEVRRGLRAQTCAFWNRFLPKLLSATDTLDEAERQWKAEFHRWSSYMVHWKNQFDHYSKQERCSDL
Protocol: as §1
The inhibitory property on the enzyme activity was assessed in β-amyloid peptide induced-rat pheochromocytoma PC 12 cells. Rat pheochromocytoma PC 12 cells were equally distributed with phenol red free Dulbecco's modified Eagle's red medium (DMEM) (Sigma Life Science, USA) containing 10% fetal bovine serum (FBS) in 24-well plate. […] Thereafter, cells were induced with 1 μg/mL of β-amyloid peptide (Calbiochem, USA) for 24 h at 37° C. After 24 h, cells were collected and washed twice with 1×PBS by centrifugation at 1200 rpm for 5 min at 4° C. Cell extracts were prepared in solubilization buffer (10 mM Tris, pH 7.2; 100 mM NaCl, 50 mM MgCl2, 1% Triton X-100). The cell extracts were used as samples for measuring the acetylcholine esterase (AChE) activity.
Cell extract samples (100 μl) were dispensed into each well of 96-well microtitre plate. Fifty micro liters of DTNB (Dithiobisnitro benzoate) solution was added to each well and incubated for 5 min at room temperature. After incubation, 50 μl of acetyl choline iodide solution was added to each well and absorbance was read immediately at 405 nm for 12 min at 2 min intervals. A standard curve was constructed by using serial concentrations of acetyl cholinesterase (0-100 mU). Total protein present in 100 μl aliquot of cell extract was calculated by Bradford method and the enzyme activity was normalized and expressed as unit activity per milligram of protein.

5-lipoxygenase (5-LOX) = target: T2, 5-lipoxygenase (5-LOX) (Homo sapiens, UniProt P09917); details: read-out: IC50 (5-LOX inhibition); cited from earlier work
T2 sequence (P09917 1-674): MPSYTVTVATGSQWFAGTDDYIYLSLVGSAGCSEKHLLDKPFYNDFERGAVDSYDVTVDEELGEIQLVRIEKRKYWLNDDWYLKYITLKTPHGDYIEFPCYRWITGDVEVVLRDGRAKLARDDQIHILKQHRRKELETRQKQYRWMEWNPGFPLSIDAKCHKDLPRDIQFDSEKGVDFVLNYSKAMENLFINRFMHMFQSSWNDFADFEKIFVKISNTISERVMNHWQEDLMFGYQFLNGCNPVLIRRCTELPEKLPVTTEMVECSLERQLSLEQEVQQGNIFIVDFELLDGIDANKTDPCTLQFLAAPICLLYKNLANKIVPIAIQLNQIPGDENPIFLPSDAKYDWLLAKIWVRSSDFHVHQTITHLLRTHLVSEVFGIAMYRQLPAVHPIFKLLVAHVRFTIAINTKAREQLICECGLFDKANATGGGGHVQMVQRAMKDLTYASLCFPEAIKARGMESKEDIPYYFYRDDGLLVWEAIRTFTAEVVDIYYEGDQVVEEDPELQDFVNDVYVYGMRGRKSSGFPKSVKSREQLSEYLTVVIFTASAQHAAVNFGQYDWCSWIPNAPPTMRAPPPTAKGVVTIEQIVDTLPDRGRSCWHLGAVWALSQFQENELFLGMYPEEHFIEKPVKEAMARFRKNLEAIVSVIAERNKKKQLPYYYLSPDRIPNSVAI

[2] = Comparative bioavailability of LI01008 (bisdemethylcurcumin) and its composition (serum, HPLC); details: oral, LI13124F1 450 mg/kg, LI01008 300 mg/kg
Sprague Dawley rats = assay: Spatial learning and memory improvement, elevated radial arm maze (RAM); assay type: in vivo, rat; details: positive control 150 mg/kg, vs control group
From the text: The animal study protocol was approved by institutional animal ethics committee. Sprague Dawley rats were acclimatized for one week and healthy rats were selected for the study. The selected rats were pre-trained in elevated radial arm maze (RAM) adapted rats were allocated to various treatment groups each containing eight rats. After completion of pre-training, the oral treatment was initiated to the animals and continued daily up to two weeks. During this treatment phase the rats were placed on the RAM for 10 min each to recognize the food pellets present in the three different colored arms. During training the spatial learning was estimated by measuring various parameters like number of days required to learn the task, latency in finding food and number of wrong entries/attempts. After this treatment and training the animals were given rest without treatment or training for one week (3rd week). On 4th week, the animals were treated with allocated doses of test products and memory retention test was assessed using the same animals by measuring latency and number of wrong entries. The data was analyzed using ANOVA followed by a suitable post-hoc test.

## 3-O-acetyl-11-keto-β-boswellic acid
Acetylcholinesterase
  % Inhibition at concentrations of 25 ng: 9.64%
  % Inhibition at concentrations of 50 ng: 16.07%
  % Inhibition at concentrations of 100 ng: 27.5%
  IC50: >0.1 µg/mL
[1]; 100 ng/ml, Table 5
  % inhibition in AChE activity: 41.67%
5-lipoxygenase (5-LOX)
  IC50: 1.5 µM

## CC(=O)O[C@@H]1CC[C@@]2(C)[C@@H](CC[C@]3(C)[C@@H]2CC=C2[C@@H]4CC(C)(C)CC[C@]4(C)CC[C@]23C)[C@@]1(C)C(=O)O [3-O-acetyl-α-boswellic acid]
Acetylcholinesterase
  % Inhibition at concentrations of 25 ng: 14.86%
  % Inhibition at concentrations of 50 ng: 21.28%
  % Inhibition at concentrations of 100 ng: 33.11%
  IC50: >0.1 µg/mL
[1]; 100 ng/ml, Table 5
  % inhibition in AChE activity: 29.22%

## CC(=O)O[C@@H]1CC[C@@]2(C)[C@@H](CC[C@]3(C)[C@@H]2CC=C2[C@@H]4[C@@H](C)[C@H](C)CC[C@]4(C)CC[C@]23C)[C@@]1(C)C(=O)O [3-O-acetyl-β-boswellic acid]
Acetylcholinesterase
  % Inhibition at concentrations of 25 ng: 36.29%
  % Inhibition at concentrations of 50 ng: 40.32%
  % Inhibition at concentrations of 100 ng: 52.02%
  IC50: 0.09177 µg/mL (≈ 0.184 µM)
[1]; 100 ng/ml, Table 5
  % inhibition in AChE activity: 37.34%

## C[C@H]1[C@H](C)CC[C@]2(C)CC[C@]3(C)C(=CC(=O)[C@@H]4[C@@]5(C)CC[C@@H](O)[C@](C)(C(=O)O)[C@@H]5CC[C@]43C)[C@H]12 [11-keto-β-boswellic acid]
Acetylcholinesterase
  % Inhibition at concentrations of 25 ng: 11.82%
  % Inhibition at concentrations of 50 ng: 16.36%
  % Inhibition at concentrations of 100 ng: 24.55%
  IC50: >0.1 µg/mL
[1]; 100 ng/ml, Table 5
  % inhibition in AChE activity: 31.39%

## O=C(/C=C/c1ccc(O)c(O)c1)CC(=O)/C=C/c1ccc(O)c(O)c1 [LI 01008, bisdemethylcurcumin]
[2]; time after admn. 0, suspension in 0.5% CMC
  Serum concentration of bisdemethylcurcumin: 0
[2]; time after admn. 0.5 (hours)
  Serum concentration of bisdemethylcurcumin: 0.07
[2]; time after admn. 1 (hours)
  Serum concentration of bisdemethylcurcumin: 0.1085
[2]; time after admn. 2 (hours)
  Serum concentration of bisdemethylcurcumin: 0.078
[2]; time after admn. 4 (hours)
  Serum concentration of bisdemethylcurcumin: 0.035
[2]; time after admn. 6 (hours)
  Serum concentration of bisdemethylcurcumin: 0.00535
[2]; time after admn. 8 (hours)
  Serum concentration of bisdemethylcurcumin: 0
[2]; time after admn. 12 (hours)
  Serum concentration of bisdemethylcurcumin: 0

## CN(C)C(=O)Oc1cccc([N+](C)(C)C)c1 [Neostigmin]
[1]; 20 ng/ml, Table 4
  % inhibition in AChE activity: 49.1% and 49.09%
[1]; 20 ng/ml, Table 5
  % inhibition in AChE activity: 54.65%

## NC(=O)CN1CCCC1=O [Piracetam]
Sprague Dawley rats
  spatial learning (reduction in latency and Number of wrong entries): significant improvement

## CC1(C)CC[C@]2(C)CC[C@]3(C)C(=CC[C@@H]4[C@@]5(C)CC[C@@H](O)[C@](C)(C(=O)O)[C@@H]5CC[C@]43C)[C@@H]2C1 [α-boswellic acid]
Acetylcholinesterase
  % Inhibition at concentrations of 25 ng: 13.85%
  % Inhibition at concentrations of 50 ng: 21.92%
  % Inhibition at concentrations of 100 ng: 39.23%
  IC50: >0.1 µg/mL
[1]; 100 ng/ml, Table 5
  % inhibition in AChE activity: 38.42%

## C[C@H]1[C@H](C)CC[C@]2(C)CC[C@]3(C)C(=CC[C@@H]4[C@@]5(C)CC[C@@H](O)[C@](C)(C(=O)O)[C@@H]5CC[C@]43C)[C@H]12 [β-boswellic acid]
Acetylcholinesterase
  % Inhibition at concentrations of 25 ng: 16.75%
  % Inhibition at concentrations of 50 ng: 21.23%
  % Inhibition at concentrations of 100 ng: 31.37%
  IC50: >0.1 µg/mL
[1]; 100 ng/ml, Table 5
  % inhibition in AChE activity: 46.54%
